Assay results published in patent publication US5399565A, “Pyrazolidinone CCK and gastrin antagonists and pharmaceutical formulations therof” (priority 1993, dated 1995).
Where two headings read alike, the source gives them in different places.

How the values were obtained:
[1] = molecular target: T1, peripheral type CCK receptors in rat pancreas (Rattus norvegicus, UniProt P30551); assay: Binding to peripheral type CCK receptors in rat pancreas (3H-L-364,718); conditions: for inhibition at 10 µM: read-out: Pancreas Percent Inhibition; for IC50: rat pancreas
T1 construct: Pancreas was obtained from male Sprague-Dawley rats; from tissue; host or cells: pancreas membranes of male Sprague-Dawley rats
T1 sequence (P30551 1-444): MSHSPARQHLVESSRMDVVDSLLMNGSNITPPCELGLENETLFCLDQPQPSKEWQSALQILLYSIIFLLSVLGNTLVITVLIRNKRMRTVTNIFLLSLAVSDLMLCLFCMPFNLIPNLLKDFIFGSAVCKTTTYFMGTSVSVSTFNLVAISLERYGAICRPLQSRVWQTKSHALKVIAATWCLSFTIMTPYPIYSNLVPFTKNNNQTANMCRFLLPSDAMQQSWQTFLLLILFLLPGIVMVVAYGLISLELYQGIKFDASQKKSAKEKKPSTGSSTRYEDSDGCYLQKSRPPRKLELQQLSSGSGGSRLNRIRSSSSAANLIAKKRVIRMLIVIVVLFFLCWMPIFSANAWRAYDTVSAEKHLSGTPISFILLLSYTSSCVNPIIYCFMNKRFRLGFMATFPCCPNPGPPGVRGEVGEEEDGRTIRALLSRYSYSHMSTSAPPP
Procedure, shortened: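 Washed pancreatic membranes from male Sprague-Dawley rats (150-200 g) incubated 1 h at room temperature with 0.4-0.6 nM ³H-L-364,718 in 50 mM Tris pH 7.4, 5 mM MgCl2, bacitracin, 5 mM DTT. Bound radioactivity counted after filtration; nonspecific binding defined with 100 nM L-364,718; IC50 determined.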

[2] = molecular target: T2, brain CCK receptor (Mus musculus, UniProt P56481); assay: CCK receptor binding, mouse brain membranes (125I-CCK-8 sulfate)
T2 construct: from tissue; host or cells: forebrain membranes of male CF-1 mice
T2 sequence (P56481 1-453): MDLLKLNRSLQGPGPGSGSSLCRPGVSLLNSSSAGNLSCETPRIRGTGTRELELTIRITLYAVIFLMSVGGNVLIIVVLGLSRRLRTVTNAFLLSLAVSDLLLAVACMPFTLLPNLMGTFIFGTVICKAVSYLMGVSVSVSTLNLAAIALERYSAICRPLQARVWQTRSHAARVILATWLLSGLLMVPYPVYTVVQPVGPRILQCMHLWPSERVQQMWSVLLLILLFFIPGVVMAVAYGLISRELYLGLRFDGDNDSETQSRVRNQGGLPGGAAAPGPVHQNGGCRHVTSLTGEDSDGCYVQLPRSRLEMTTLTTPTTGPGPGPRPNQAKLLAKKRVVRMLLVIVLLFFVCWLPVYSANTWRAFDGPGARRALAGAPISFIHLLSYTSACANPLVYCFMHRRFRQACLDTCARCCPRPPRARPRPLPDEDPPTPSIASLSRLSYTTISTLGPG

[3] = molecular target: T3, gastrin receptor (Cavia porcellus, UniProt H0VZC5); assay: Gastrin binding to guinea pig stomach mucosal membranes (125I-gastrin I)
T3 construct: Guinea pig stomach fundus was obtained from male Hartley guinea pigs; from tissue; host or cells: stomach fundus mucosal membranes of male Hartley guinea pigs
T3 sequence (H0VZC5 1-426): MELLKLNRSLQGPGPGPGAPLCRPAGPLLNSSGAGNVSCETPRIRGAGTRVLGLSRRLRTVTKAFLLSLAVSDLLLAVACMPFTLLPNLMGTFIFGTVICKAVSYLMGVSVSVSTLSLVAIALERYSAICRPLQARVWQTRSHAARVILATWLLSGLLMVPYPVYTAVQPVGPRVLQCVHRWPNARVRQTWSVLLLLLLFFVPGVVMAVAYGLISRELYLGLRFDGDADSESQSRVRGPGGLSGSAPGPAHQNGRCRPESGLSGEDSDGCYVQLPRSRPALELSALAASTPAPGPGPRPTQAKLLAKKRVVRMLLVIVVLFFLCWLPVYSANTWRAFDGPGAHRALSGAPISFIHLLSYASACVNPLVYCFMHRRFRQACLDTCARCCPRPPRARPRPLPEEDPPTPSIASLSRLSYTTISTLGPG
Method: The method used for gastrin binding to guinea pig stomach mucosal membranes was similar to that described by Takeuchi, Speir and Johnson (Am. J. Physiol. 237(3): E284-E294, 1979). Guinea pig stomach fundus was obtained from male Hartley guinea pigs, 300-350 g, and the mucosa was scraped off with a glass slide. The mucosa was homogenized in 50 mM Tris buffer, pH 7.4, containing 1 mM phenylmethanesulfonyl fluoride using a Dounce glass homogenizer, and the suspension was centrifuged at 40,000 g for 10 min. The resulting pellet was resuspended and centrifuged once more, the final pellet was then suspended in 100 ml assay buffer per 1 guinea pig stomach to give a protein concentration of 200-300 μg/200 μl. The assay buffer consisted of 50 mM Tris buffer, pH 7.4, 5 mM MgCl2, 0.14 mg/ml bacitracin, and 1 μg/ml each of leupeptin, chymostatin, aprotinin and pepstatin. Reagent volumes for the assay were the same as those used for CCK binding to brain membranes. The radioactive ligand was 20 pM ^125 I-gastrin I, from DuPont NEN (NEX-176). The samples were incubated 3 hours at room temperature and filtered and counted as described for CCK binding to brain membranes. Compound samples were prepared and IC-50 values were determined as described for the CCK-brain receptor binding. Non-specific binding was determined using 100 nM gastrin I (human synthetic from Sigma Chemical Co.).

[4] = mouse brain membranes, read-out: Brain IC50
[5] = guinea pig stomach mucosal membranes, read-out: Gastrin IC50
[6] = Brain IC50, mouse brain membranes

SMILES | inhibition at 10 µM [1] [%] | IC50 [2, 4] [nM] | IC50 [3, 5] [nM] | IC50 [1] [µM] | IC50 [2, 6] [nM] | IC50 [3] [nM]
O=C1NN(C(=O)Nc2ccc(Br)cc2)C(c2ccccc2)C1c1cccc2ccccc12 (stereo not shown) [Example 134] | 75 | 33 | 93 | – | – | –
O=C1NN(C(=O)Nc2ccc(Br)cc2)[C@@H](c2ccccc2Cl)[C@H]1c1ccccc1Cl (relative stereo) [Example 133A] | 55 | 360 | 1500 | – | – | –
O=C1NN(C(=O)Nc2ccc(C(F)(F)F)cc2)[C@@H](c2ccccc2)[C@@H]1c1ccccc1 (relative stereo) [Example 16] | 62 | 44 | 420 | – | – | –
O=C1NN(C(=O)Nc2ccc(Br)cc2)C(c2ccccc2)C1c1cccc([N+](=O)[O-])c1 (stereo not shown) [Example 125] | 42 | 100 | 590 | – | – | –
O=C1NN(C(=O)Nc2ccc(Br)cc2)C(c2cccnc2)C1c1ccccc1 (stereo not shown) [Example 135] | 18 | 140 | 1700 | – | – | –
NC(=O)c1cccc(C2C(c3ccccc3)C(=O)NN2C(=O)Nc2ccc(Br)cc2)c1 (stereo not shown) [Example 118] | 41 | 360 | 5200 | – | – | –
O=C1NN(C(=O)Nc2ccc3c(c2)CCC3)[C@H](c2ccccc2)[C@H]1c1ccccc1 (relative stereo) [Example 49] | 40 | 43 | 250 | – | – | –
O=C1NN(C(=O)Nc2ccc(C(F)(F)F)cc2)C(c2ccccc2)C1c1ccccc1Cl (stereo not shown) [Example 130] | 42 | – | – | – | 12 | 100
N#Cc1cccc(C2C(c3ccccc3)C(=O)NN2C(=O)Nc2ccc(C(F)(F)F)cc2)c1 (stereo not shown) [Example 111] | 35 | – | – | – | 20 | 610
O=C1NN(C(=O)NCCc2ccccc2Cl)[C@@H](c2ccccc2)[C@@H]1c1ccccc1 (relative stereo) [Example 106] | 78 | 190 | 870 | – | – | –
COc1cccc(C2C(=O)NN(C(=O)Nc3ccc(Br)cc3)C2c2ccccc2)c1 (stereo not shown) [Example 123] | 23 | 68 | 690 | – | – | –
COc1ccccc1C1C(c2ccccc2)C(=O)NN1C(=O)Nc1ccc(Br)cc1 (stereo not shown) [Example 115] | 53 | 150 | 320 | – | – | –
O=C1NN(C(=O)Nc2ccc3ncccc3c2)[C@@H](c2ccccc2)[C@@H]1c1ccccc1 (relative stereo) [Example 93] | 75 | 290 | 660 | – | – | –
O=C1NN(C(=O)Nc2ccc(Br)cc2)C(c2ccccc2)C1c1ccc(Cl)cc1 (stereo not shown) [Example 129] | 69 | 160 | 860 | – | – | –
COc1cccc(C2C(c3ccccc3)C(=O)NN2C(=O)Nc2ccc(C(F)(F)F)cc2)c1 (stereo not shown) [Example 112] | 42 | 72 | 1400 | – | – | –
O=C1NN(C(=O)Nc2ccc(Br)cc2)[C@@H](c2cccc(Cl)c2Cl)[C@H]1c1ccccc1 (relative stereo) [Example 117] | 64 | 400 | 1000 | – | – | –
CC(C)Oc1cccc(C2C(=O)NN(C(=O)Nc3ccc(Br)cc3)C2c2ccccc2)c1 (stereo not shown) [Example 124] | 36 | 150 | 730 | – | – | –
O=C1NN(C(=S)Nc2ccc(Cl)c(C(F)(F)F)c2)[C@H](c2ccccc2)[C@H]1c1ccccc1 (relative stereo) [Example 63] | – | 510 | – | 0.075 | – | –
CCc1ccc(NC(=O)N2NC(=O)[C@@H](c3ccccc3)[C@@H]2c2ccccc2)cc1 (relative stereo) [Example 26] | 47 | 75 | – | – | – | –

Continued, in another order:

inhibition at 10 µM [1] [%] | IC50 [2, 4] [nM] | IC50 [3, 5] [nM] | IC50 [1] [µM] | SMILES | IC50 [2, 6] [nM] | IC50 [3] [nM]
26 | 14 | 120 | – | CC(C)c1ccc(NC(=O)N2NC(=O)C(c3ccccc3)C2c2ccccc2Cl)cc1 (stereo not shown) [Example 121] | – | –
87 | 13 | 81 | – | O=C1NN(C(=O)Nc2ccc3c(c2)CCCC3)[C@H](c2ccccc2)[C@H]1c1ccccc1 (relative stereo) [Example 50] | – | –
61 | 12 | 62 | – | O=C1NN(C(=O)Nc2ccc(Cl)c(C(F)(F)F)c2)C(c2ccccc2)C1c1ccccc1Cl (stereo not shown) [Example 131] | – | –
– | 6 | 25 | 7.9 | O=C1NN(C(=O)Nc2ccc(Br)cc2)[C@@H](c2ccccc2Cl)[C@@H]1c1ccccc1Cl (relative stereo) [Example 133] | – | –
47 | 25 | 260 | – | CC(C)c1ccc(NC(=O)N2NC(=O)[C@@H](c3ccccc3)[C@@H]2c2ccccc2)cc1 (relative stereo) [Example 29] | – | –
48 | 8 | 70 | – | CC(C)c1ccc(NC(=O)N2NC(=O)C(c3ccccc3Cl)C2c2ccccc2)cc1 (stereo not shown) [Example 132] | – | –
49 | 31 | 350 | – | CC(C)(C)c1ccc(NC(=O)N2NC(=O)[C@@H](c3ccccc3)[C@@H]2c2ccccc2)cc1 (relative stereo) [Example 30] | – | –
87 | 16 | 120 | – | O=C1NN(C(=O)Nc2ccc(Cl)c(C(F)(F)F)c2)C(c2ccccc2Cl)C1c1ccccc1 (stereo not shown) [Example 120] | – | –
– | 31 | 490 | 11.6 | O=C1NN(C(=O)Nc2ccc(Br)cc2)[C@@H](c2ccccc2)[C@@H]1c1ccccc1 (relative stereo) [Example 20] | – | –
– | 15 | 220 | 8.6 | O=C1NN(C(=O)Nc2ccc(Br)cc2)C(c2ccccc2)C1c1ccccc1Cl (stereo not shown) [Example 122] | – | –
73 | 32 | 210 | – | O=C1NN(C(=O)Nc2ccc(Br)cc2)C(c2ccccc2)C1c1cccc(Br)c1 (stereo not shown) [Example 127] | – | –
80 | 31 | 230 | – | O=C1NN(C(=O)Nc2ccc(Br)cc2)[C@@H](c2cccc(Cl)c2Cl)[C@@H]1c1ccccc1 (relative stereo) [Example 116] | – | –
38 | 20 | 360 | – | O=C1NN(C(=O)Nc2ccc(Br)cc2)C(c2ccccc2Cl)C1c1ccccc1 (stereo not shown) [Example 114] | – | –
– | 22 | 150 | 0.19 | O=C1NN(C(=O)Nc2ccc(Cl)c(C(F)(F)F)c2)[C@@H](c2ccccc2)[C@@H]1c1ccccc1 (relative stereo) [Example 1, 1-[(4-Chloro-3-trifluoromethylphenyl)aminocarbonyl]-4,5-diphenyl-3-pyrazolidinone] | – | –
